Reference: publication doi:10.1101/2024.04.19.590212v1 (biorxiv, 2024)
Like-named read-outs stand apart in the source and are kept apart here.

Columns and labels:
5-HT1BR [1] = target: T1, 5-HT1BR (Homo sapiens, UniProt P28222); experiment: cell-based; details: CHO-K1, read-out: 5-HT1BR Rmax (cAMP)
5-HT1BR [2] = target: T1, 5-HT1BR; experiment: cell-based
5-HT2CR [3] = target: T2, 5-HT2CR (Homo sapiens, UniProt P28335); experiment: cell-based
5-HT2CR [4] = target: T2, 5-HT2CR; details: agonist mode; partial agonist
5-HT2CR [5] = target: T2, 5-HT2CR; experiment: cell-based; remark: listed apart in the source
5-HT2AR [6] = target: T3, 5-HT2AR (Homo sapiens, UniProt P28223); experiment: cell-based; details: U2OS, read-out: 5-HT2AR Rmax (internalization)
T3 sequence (P28223 whole entry): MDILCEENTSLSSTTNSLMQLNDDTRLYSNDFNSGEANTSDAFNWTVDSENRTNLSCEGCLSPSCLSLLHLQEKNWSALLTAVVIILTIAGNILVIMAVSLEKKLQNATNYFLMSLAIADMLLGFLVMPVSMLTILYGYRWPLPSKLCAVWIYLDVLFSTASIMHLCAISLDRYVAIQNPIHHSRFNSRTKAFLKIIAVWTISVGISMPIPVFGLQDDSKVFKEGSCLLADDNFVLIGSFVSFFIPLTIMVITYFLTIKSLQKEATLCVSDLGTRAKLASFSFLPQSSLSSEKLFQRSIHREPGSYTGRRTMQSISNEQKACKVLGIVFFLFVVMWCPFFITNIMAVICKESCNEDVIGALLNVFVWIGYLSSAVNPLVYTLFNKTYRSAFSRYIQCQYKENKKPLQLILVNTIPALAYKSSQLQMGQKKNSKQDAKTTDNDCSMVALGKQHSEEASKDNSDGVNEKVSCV

5-HT2AR [7] = target: T3, 5-HT2AR; experiment: cell-based; details: U2OS, read-out: 5-HT2AR Rmax (beta-arrestin)
5-HT2CR [8] = target: T2, 5-HT2CR; details: antagonist mode against 5-HT-induced response; incomplete inhibition
5-HT1BR [9] = target: T1, 5-HT1BR; experiment: cell-based; remark: listed apart in the source

T1 sequence (P28222 whole entry): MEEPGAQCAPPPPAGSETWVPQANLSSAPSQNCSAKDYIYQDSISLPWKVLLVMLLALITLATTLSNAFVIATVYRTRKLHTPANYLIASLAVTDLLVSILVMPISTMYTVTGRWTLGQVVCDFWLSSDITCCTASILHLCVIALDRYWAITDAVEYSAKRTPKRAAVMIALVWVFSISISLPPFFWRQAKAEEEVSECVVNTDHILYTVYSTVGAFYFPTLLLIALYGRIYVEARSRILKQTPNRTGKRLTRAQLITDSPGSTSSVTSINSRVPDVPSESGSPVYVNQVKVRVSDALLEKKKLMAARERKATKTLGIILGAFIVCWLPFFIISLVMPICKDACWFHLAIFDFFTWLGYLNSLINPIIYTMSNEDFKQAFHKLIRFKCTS
T2 sequence (P28335 33-458): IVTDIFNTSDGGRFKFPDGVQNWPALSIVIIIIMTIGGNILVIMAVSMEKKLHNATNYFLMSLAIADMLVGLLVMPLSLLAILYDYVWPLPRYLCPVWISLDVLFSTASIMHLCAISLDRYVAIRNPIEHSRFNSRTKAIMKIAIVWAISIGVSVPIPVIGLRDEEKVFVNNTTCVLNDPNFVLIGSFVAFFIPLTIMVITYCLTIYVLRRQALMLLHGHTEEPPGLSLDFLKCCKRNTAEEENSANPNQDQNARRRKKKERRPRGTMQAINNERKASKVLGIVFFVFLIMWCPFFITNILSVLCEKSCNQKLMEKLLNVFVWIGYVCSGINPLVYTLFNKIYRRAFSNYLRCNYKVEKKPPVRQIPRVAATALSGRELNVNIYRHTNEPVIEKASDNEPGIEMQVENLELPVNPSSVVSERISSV

In the case of `COc1cc(C(F)(F)F)c(OC)cc1[C@@H]1CCCNC1` [LPH-5, (S)-3-(2,5-dimethoxy-4-(trifluoromethyl)phenyl)piperidine], the Emax (5-HT1BR [1]) is reported as 78%, the EC50 (5-HT1BR [2]) is reported as > 30000 nM and the IC50 (5-HT2CR [3]) is reported as 38 nM. For the same compound, the EC50 (5-HT2CR [4]) was 110 [pEC50 6.96 ± 0.07] nM, the EC50 (5-HT2CR [5]) was > 30000 nM and the Emax (5-HT2AR [6]) was 94 ± 11%. For the same compound, the Emax (5-HT2AR [7]) was 61 ± 11%, the IC50 (5-HT2CR [8]) was 300 [pIC50 6.52 ± 0.08] nM and the EC50 (5-HT1BR [9]) was 870 nM.
